This passage reports Ki results from ChEMBL document CHEMBL1153934, “Quantitative structure-activity relationship (QSAR) for a series of novel cannabinoid derivatives using descriptors derived from semi-empirical quantum-chemical calculations” (Bioorg Med Chem, 2009).

In one test the target is Cannabinoid receptor 1 (Homo sapiens, UniProt P21554). The test can be described thus: Binding affinity to CB1 receptor.
For the next test, the target named is Cannabinoid receptor 2 (Homo sapiens, UniProt P34972). The test can be described thus: Binding affinity to CB2 receptor.
Sequence of Cannabinoid receptor 2 (P34972 whole entry): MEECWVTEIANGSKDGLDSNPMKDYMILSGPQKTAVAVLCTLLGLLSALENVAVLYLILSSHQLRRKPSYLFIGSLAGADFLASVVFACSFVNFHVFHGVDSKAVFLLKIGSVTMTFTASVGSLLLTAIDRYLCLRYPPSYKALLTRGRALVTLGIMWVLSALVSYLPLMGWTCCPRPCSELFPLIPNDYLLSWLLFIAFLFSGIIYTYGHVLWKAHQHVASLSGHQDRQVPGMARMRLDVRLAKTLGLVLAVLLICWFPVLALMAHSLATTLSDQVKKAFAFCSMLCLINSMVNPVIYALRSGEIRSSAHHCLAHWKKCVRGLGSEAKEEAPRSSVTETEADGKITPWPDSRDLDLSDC

Sequence of Cannabinoid receptor 1 (P21554 whole entry): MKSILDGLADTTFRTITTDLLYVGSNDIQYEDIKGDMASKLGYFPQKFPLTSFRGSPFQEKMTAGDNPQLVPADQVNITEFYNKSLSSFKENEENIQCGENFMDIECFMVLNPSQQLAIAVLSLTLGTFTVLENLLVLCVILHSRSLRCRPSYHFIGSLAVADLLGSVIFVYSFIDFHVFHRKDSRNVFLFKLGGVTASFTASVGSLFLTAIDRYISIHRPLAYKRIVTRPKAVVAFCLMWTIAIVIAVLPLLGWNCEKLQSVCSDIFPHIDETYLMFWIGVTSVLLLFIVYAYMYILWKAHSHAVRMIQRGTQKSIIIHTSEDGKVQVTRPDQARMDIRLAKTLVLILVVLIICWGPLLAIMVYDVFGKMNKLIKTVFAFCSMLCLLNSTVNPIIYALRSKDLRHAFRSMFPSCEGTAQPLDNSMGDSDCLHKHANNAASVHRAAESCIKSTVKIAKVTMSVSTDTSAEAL

As for `CC1=CC[C@@H]2[C@@H](C1)c1c(O)cc(C3C4CC5CC(C4)CC3C5)cc1OC2(C)C` (stereo not given in full), the Ki at Cannabinoid receptor 1 was determined as 34.9 nM; at Cannabinoid receptor 2, 14 nM.

For the compound `CC1=CC[C@@H]2[C@@H](C1)c1c(O)cc(CC34CC5CC(CC(C5)C3)C4)cc1OC2(C)C`, the Ki at Cannabinoid receptor 1 was determined as 29.3 nM; on Cannabinoid receptor 2, 26.9 nM.

Take `CC(=O)Nc1cccc(C(C)(C)c2cc(O)c3c(c2)OC(C)(C)[C@@H]2CC=C(C)C[C@@H]32)c1`: the values for the Ki on Cannabinoid receptor 1 and on Cannabinoid receptor 2 were 13.7 nM and 13.6 nM, respectively.

With `CC1=CC[C@@H]2[C@@H](C1)c1c(O)cc(CC3C4CC5CC(C4)CC3C5)cc1OC2(C)C` (stereo not given in full), the inhibitory constant (Ki) came to 79.7 nM at Cannabinoid receptor 1 and 76 nM at Cannabinoid receptor 2.

As to `CC1=CC[C@@H]2[C@@H](C1)c1c(O)cc(C=C3C4CC5CC(C4)CC3C5)cc1OC2(C)C`, the values for the inhibitory constant (Ki) on Cannabinoid receptor 1 and at Cannabinoid receptor 2 were 48.6 nM and 8.9 nM, respectively.

A word on the Ki: it is a measure of affinity in units of concentration, obtained from inhibition or displacement. The low end stands for a stronger hold on the target, the high end for a looser hold on the target.
